Assay results taken from patent US9682995B2, “Amino-substituted isothiazoles” (BAYER PHARMA AKTIENGESELLSCHAFT, priority 2013, dated 2017).

What was measured:
human Bub1 = human Bub1 (Homo sapiens (Human), UniProt O43683); assay: Bub1 kinase assay (TR-FRET); type: biochemical; settings: 10 μM ATP; read-out: Bub1 avg (IC50 [mol/l])
Description: Bub1-inhibitory activity of compounds of the present invention was quantified employing the Bub1 TR-FRET assay as described in the following paragraphs.
N-terminally His6-tagged recombinant catalytic domain of human Bub1 (amino acids 704-1085), expressed in insect cells (Hi5) and purified by Ni-NTA affinity chromatography and subsequent size exclusion chromatography, was used as enzyme. As substrate for the kinase reaction the biotinylated peptide biotin-Ahx-VLLPKKSFAEPG (C-terminus in amid form) was used which can be purchased e.g. form the company Biosyntan (Berlin, Germany).
For the assay 50 nl of a 100 fold concentrated solution of the test compound in DMSO was pipetted into a black low volume 384 well microtiter plate (Greiner Bio-One, Frickenhausen, Germany), 2 μl of a solution of Bub1 in aqueous assay buffer [50 mM Tris/HCl pH 7.5, 10 mM magnesium chloride (MgCl2), 200 mM potassium chloride (KCl), 1.0 mM dithiothreitol (DTT), 0.1 mM sodium ortho-vanadate, 1% (v/v) glycerol, 0.01% (w/v) bovine serum albumine (BSA), 0.005% (v/v) Trition X-100 (Sigma), 1× Complete EDTA-free protease inhibitor mixture (Roche)] were added and the mixture was incubated for 15 min at 22° C. to allow pre-binding of the test compounds to the enzyme before the start of the kinase reaction. Then the kinase reaction was started by the addition of 3 μl of a solution of adenosine-tri-phosphate (ATP, 16.7 μM=>final conc. in the 5 μl assay volume is 10 μM) and substrate (1.67 μM=>final conc. in the 5 μl assay volume is 1 μM) in assay buffer and the resulting mixture was incubated for a reaction time of 60 min at 22° C. The concentration of Bub1 was adjusted depending of the activity of the enzyme lot and was chosen appropriate to have the assay in the linear range, typical concentrations were in the range of 200 ng/ml. The reaction was stopped by the addition of 5 μl of a solution of TR-FRET detection reagents (0.2 μM streptavidine-XL665 [Cisbio Bioassays, Codolet, France] and 1 nM anti-phosho-Serine antibody [Merck Millipore, cat. #35-001] and 0.4 nM LANCE EU-W1024 labeled anti-mouse IgG antibody [Perkin-Elmer, product no. AD0077, as an alternative a Terbium-cryptate-labeled anti-mouse IgG antibody from Cisbio Bioassays can be used]) in an aqueous EDTA-solution (50 mM EDTA, 0.2% (w/v) bovine serum albumin in 100 mM HEPES pH 7.5).
The resulting mixture was incubated 1 h at 22° C. to allow the formation of complex between the phosphorylated biotinylated peptide and the detection reagents. Subsequently the amount of phosphorylated substrate was evaluated by measurement of the resonance energy transfer from the Eu-chelate to the streptavidine-XL. Therefore, the fluorescence emissions at 620 nm and 665 nm after excitation at 350 nm was measured in a TR-FRET reader, e.g. a Rubystar or Pherastar (both from BMG Labtechnologies, Offenburg, Germany) or a Viewlux (Perkin-Elmer). The ratio of the emissions at 665 nm and at […] was taken as the measure for the amount of phosphorylated substrate. The data were normalised (enzyme reaction without inhibitor=0% inhibition, all other assay components but no enzyme=100% inhibition).

HeLa = assay: Proliferation assay (crystal violet), HeLa; type: cell-based; settings: Homo sapiens, 96 h, 4 days, read-out: Inhibition of proliferation IC50 HeLa
Description: (§1) Cultivated tumor cells (cells were ordered from ATCC, except HeLa-MaTu and HeLa-MaTu-ADR, which were ordered from EPO-GmbH, Berlin) were plated at a density of 1000 to 5000 cells/well, depending on the growth rate of the respective cell line, in a 96-well multititer plate in 200 μL of their respective growth medium supplemented 10% fetal calf serum. After 24 hours, the cells of one plate (zero-point plate) were stained with crystal violet (see below), while the medium of the other plates was replaced by fresh culture medium (200 μl), to which the test substances were added in various concentrations (0 μM, as well as in the range of 0.001-10 μM; the final concentration of the solvent dimethyl sulfoxide was 0.5%). The cells were incubated for 4 days in the presence of test substances. Cell proliferation was determined by staining the cells with crystal violet: the cells were fixed by adding 20 μl/measuring point of an 11% glutaric aldehyde solution for 15 minutes at room temperature. After three washing cycles of the fixed cells with water, the plates were dried at room temperature. The cells were stained by adding 100 μl/measuring point of a 0.1% crystal violet solution (pH 3.0). After three washing cycles of the stained cells with water, the plates were dried at room temperature. The dye was dissolved by adding 100 μl/measuring point of a 10% acetic acid solution. Absorption was determined by photometry at a wavelength of 595 nm. The change of cell number, in percent, was calculated by normalization of the measured values to the absorption values of the zero-point plate (=0%) and the absorption of the untreated (0 μm) cells (=100%). The IC50 values were determined by means of a 4 parameter fit.

HeLa-MaTu-ADR = assay: Proliferation assay (crystal violet), HeLa-MaTu-ADR; type: cell-based; settings: 96 h, 4 days, read-out: Inhibition of proliferation IC50 HeLa-MaTu-ADR
Description: as §1

NCI-H460 = assay: Proliferation assay (crystal violet), NCI-H460; type: cell-based; settings: Homo sapiens, 96 h; NCI-H460, 4 days; read-out: Inhibition of proliferation IC50 NCI-H460
Description: as §1

DU145 = assay: Proliferation assay (crystal violet), DU145; type: cell-based; settings: Homo sapiens, DU-145, 96 h; DU145, 4 days; read-out: Inhibition of proliferation IC50 DU145
Description: as §1

Caco2 = assay: Proliferation assay (crystal violet), Caco2; type: cell-based; settings: Homo sapiens, Caco-2, 96 h; Caco2, 4 days; read-out: Inhibition of proliferation IC50 Caco2
Description: as §1

B16F10 = assay: Proliferation assay (crystal violet), B16F10; type: cell-based; settings: Mus musculus, B16-F10, 96 h; B16F10, 4 days; read-out: Inhibition of proliferation IC50 B16F10
Description: as §1

Chain of human Bub1 (O43683 704-1085): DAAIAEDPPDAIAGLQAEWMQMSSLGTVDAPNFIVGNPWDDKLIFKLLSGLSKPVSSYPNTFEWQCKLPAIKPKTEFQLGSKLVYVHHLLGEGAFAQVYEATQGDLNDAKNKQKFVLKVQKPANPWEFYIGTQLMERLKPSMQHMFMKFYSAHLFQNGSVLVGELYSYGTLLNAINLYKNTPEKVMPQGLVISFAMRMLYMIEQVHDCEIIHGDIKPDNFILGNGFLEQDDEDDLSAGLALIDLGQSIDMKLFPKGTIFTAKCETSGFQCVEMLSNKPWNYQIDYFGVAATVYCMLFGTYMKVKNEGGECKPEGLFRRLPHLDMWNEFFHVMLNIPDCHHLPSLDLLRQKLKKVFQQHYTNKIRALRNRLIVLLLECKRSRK

| Structure (SMILES) | IC50 (human Bub1) [nM] | IC50 (HeLa) [nM] | IC50 (HeLa-MaTu-ADR) [nM] | IC50 (NCI-H460) [nM] | IC50 (DU145) [nM] | IC50 (Caco2) [nM] | IC50 (B16F10) [nM] |
| --- | --- | --- | --- | --- | --- | --- | --- |
| Cc1nsc(Nc2ccc(C#N)cn2)c1C(=O)Nc1ccc(Cl)c(F)c1 [Example 52, N-(4-Chloro-3-fluorophenyl)-5-[(5-cyanopyridin-2-yl)amino]-3-methyl-1,2-thiazole-4-carboxamide] | > 20000 | 240 | 130 | 130 | 310 | 190 | 230 |
| Cc1nsc(Nc2cc(C#N)ccn2)c1C(=O)Nc1ccc(Cl)c(F)c1 [Example 54, N-(4-Chloro-3-fluorophenyl)-5-[(4-cyanopyridin-2-yl)amino]-3-methyl-1,2-thiazole-4-carboxamide] | > 20000 | 800 | 650 | 210 | 1200 | 1300 | 860 |
| COc1ccc(NC(=O)c2c(C)nsc2Nc2cnc3c(F)c(F)ccc3n2)cn1 [Example 43, 5-[(5,6-Difluoroquinoxalin-2-yl)amino]-N-(6-methoxypyridin-3-yl)-3-methyl-1,2-thiazole-4-carboxamide] | > 20000 | 420 | 260 | 130 | 420 | 380 | 230 |
| COc1ccc(NC(=O)c2c(C)nsc2Nc2cnc3cc(Cl)ccc3n2)cn1 [Example 23, 5-[(6-Chloroquinoxalin-2-yl)amino]-N-(6-methoxypyridin-3-yl)-3-methyl-1,2-thiazole-4-carboxamide] | > 20000 | 1800 | 2700 | 2200 | 9400 | 2400 | 8400 |
| Cc1nsc(Nc2cc(C#N)ccn2)c1C(=O)Nc1ccc(Oc2ccc(F)cc2F)nc1 [Example 114, 5-[(4-Cyanopyridin-2-yl)amino]-N-[6-(2,4-difluorophenoxy)pyridin-3-yl]-3-methyl-1,2-thiazole-4-carboxamide] | – | 1100 | 690 | 520 | 1300 | 980 | 1200 |
| Cc1nsc(Nc2cc(C#N)ccn2)c1C(=O)Nc1ccc(F)c(F)c1 [Example 27, 5-[(4-Cyanopyridin-2-yl)amino]-N-(3,4-difluorophenyl)-3-methyl-1,2-thiazole-4-carboxamide] | > 20000 | 2000 | 240 | 220 | 350 | 450 | 220 |
| CCc1ccccc1NC(=O)c1c(C)nsc1Nc1cnc2ccc(Cl)cc2n1 [Example 41, 5-[(7-Chloroquinoxalin-2-yl)amino]-N-(2-ethylphenyl)-3-methyl-1,2-thiazole-4-carboxamide] | > 20000 | 1300 | 640 | 350 | 750 | 170 | 680 |
| Cc1nsc(Nc2nc3c(C(F)(F)F)cccc3s2)c1C(=O)Nc1ccc(F)c(F)c1 [Example 51, N-(3,4-Difluorophenyl)-3-methyl-5-{[4-(trifluoromethyl)-1,3-benzothiazol-2-yl]-amino}-1,2-thiazole-4-carboxamide] | > 20000 | 570 | 370 | 280 | 160 | 69 | 470 |
| CNC(=O)c1ccnc(Nc2snc(C)c2C(=O)Nc2ccc(F)c(F)c2)c1 [Example 108, 2-({4-[(3,4-Difluorophenyl)-carbamoyl]-3-methyl-1,2-thiazol-5-yl}amino)-N-methyliso-nicotinamide] | > 20000 | 10000 | – | – | – | – | – |
| Cc1nsc(Nc2nc3c(C(F)(F)F)cccc3s2)c1C(=O)Nc1ccc(Cl)c(Cl)c1 [Example 102, N-(3,4-Dichlorophenyl)-3-methyl-5-{[4-(trifluoromethyl)-1,3-benzothiazol-2-yl]amino}-1,2-thiazole-4-carboxamide] | > 20000 | 7300 | – | – | – | – | – |
| CCc1ccccc1NC(=O)c1c(C)nsc1Nc1cc(C(F)(F)F)ccn1 [Example 18, N-(2-Ethylphenyl)-3-methyl-5-{[4-(trifluoromethyl)pyridin-2-yl]amino}-1,2-thiazole-4-carboxamide] | > 20000 | 7500 | – | – | – | – | – |
| CCOC(=O)c1sc(Nc2snc(C)c2C(=O)Nc2ccccc2CC)nc1C [Example 26, Ethyl 2-({4-[(2-ethylphenyl)carbamoyl]-3-methyl-1,2-thiazol-5-yl}amino)-4-methyl-1,3-thiazole-5-carboxylate] | > 20000 | 4400 | – | – | – | – | – |
| CCc1ccccc1NC(=O)c1c(C)nsc1Nc1nc(C)nc2sccc12 [Example 38, N-(2-Ethylphenyl)-3-methyl-5-[(2-methylthieno[2,3-d]pyrimidin-4-yl)amino]-1,2-thiazole-4-carboxamide] | > 20000 | 5300 | – | – | – | – | – |
| CCOc1ccc(NC(=O)c2c(C)nsc2Nc2cnc3ccccc3n2)cn1 [Example 119, N-(6-Ethoxypyridin-3-yl)-3-methyl-5-(quinoxalin-2-ylamino)-1,2-thiazole-4-carboxamide] | > 20000 | 3300 | – | – | – | – | – |
| COc1ccc(Oc2ccc(NC(=O)c3c(C)nsc3Nc3cc(C#N)ccn3)cn2)cc1 [Example 117, 5-[(4-Cyanopyridin-2-yl)amino]-N-[6-(4-methoxyphenoxy)pyridin-3-yl]-3-methyl-1,2-thiazole-4-carboxamide] | > 20000 | 3200 | – | – | – | – | – |
| Cc1nsc(Nc2cnc3ccccc3n2)c1C(=O)Nc1ccc(OC(C)C)nc1 [Example 122, N-(6-Isopropoxypyridin-3-yl)-3-methyl-5-(quinoxalin-2-ylamino)-1,2-thiazole-4-carboxamide] | > 20000 | 1800 | – | – | – | – | – |
| Cc1nsc(Nc2cc(C#N)ccn2)c1C(=O)Nc1ccc(OC2CCCCC2)nc1 [Example 118, 5-[(4-Cyanopyridin-2-yl)amino]-N-[6-(cyclohexyloxy)pyridin-3-yl]-3-methyl-1,2-thiazole-4-carboxamide] | > 20000 | 1700 | – | – | – | – | – |
